{
  "source": "patent US20250313563A1",
  "about": "“GLYCOGEN SYNTHASE KINASE 3 INHIBITORS AND USES THEREOF” (The Broad Institute, Inc., priority 2022, published 2025)",
  "key": {"[1]": {"biological_target": "GSK3α (GST-full length GSK3α) (Homo sapiens (Human), UniProt P49840)", "sequence (P49840 whole entry)": "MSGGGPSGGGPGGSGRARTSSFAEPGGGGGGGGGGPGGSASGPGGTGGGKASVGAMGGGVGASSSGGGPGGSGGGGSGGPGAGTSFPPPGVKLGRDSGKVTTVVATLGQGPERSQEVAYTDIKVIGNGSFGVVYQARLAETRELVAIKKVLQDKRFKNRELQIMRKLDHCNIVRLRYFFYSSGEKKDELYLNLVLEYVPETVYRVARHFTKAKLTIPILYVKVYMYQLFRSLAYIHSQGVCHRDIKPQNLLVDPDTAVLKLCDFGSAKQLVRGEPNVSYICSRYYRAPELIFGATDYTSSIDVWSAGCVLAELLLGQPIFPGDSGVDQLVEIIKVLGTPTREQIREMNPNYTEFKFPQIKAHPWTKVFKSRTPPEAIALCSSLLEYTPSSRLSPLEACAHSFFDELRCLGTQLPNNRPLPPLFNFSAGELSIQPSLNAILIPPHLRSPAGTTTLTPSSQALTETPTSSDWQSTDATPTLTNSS", "test": "GSK3α TR-FRET kinase assay", "type": "biochemical", "summary_of_the_method": "(§1)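 Compound preincubated 30 min, then 1 nM GST-full-length GSK3α or GSK3b run 100 min at ambient temperature with 200 nM biotinylated, S645-prephosphorylated glycogen synthase 631-650 peptide in Tris pH 7.5, MgCl2, DTT, BSA, 1% DMSO. ATP 4 μM (α) or 2 μM (β), or 1 mM. EDTA-quenched; Tb-anti-pSer641/streptavidin-d2 TR-FRET 665/615 ratio gave IC50.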"}, "[2]": {"biological_target": "GSK3b (GST-full length GSK3b) (Homo sapiens (Human), UniProt P49841)", "sequence (P49841 whole entry)": "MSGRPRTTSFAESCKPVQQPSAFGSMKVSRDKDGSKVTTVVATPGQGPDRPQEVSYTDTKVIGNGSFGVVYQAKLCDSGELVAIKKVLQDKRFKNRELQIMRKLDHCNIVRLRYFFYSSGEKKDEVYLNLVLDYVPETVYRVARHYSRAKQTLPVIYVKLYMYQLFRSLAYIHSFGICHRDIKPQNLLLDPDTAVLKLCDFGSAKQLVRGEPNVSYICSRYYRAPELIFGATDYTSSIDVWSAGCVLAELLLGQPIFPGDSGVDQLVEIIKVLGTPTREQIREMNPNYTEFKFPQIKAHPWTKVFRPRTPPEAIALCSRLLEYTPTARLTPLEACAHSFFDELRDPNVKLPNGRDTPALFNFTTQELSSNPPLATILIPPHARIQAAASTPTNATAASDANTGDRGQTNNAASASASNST", "test": "GSK3b TR-FRET kinase assay", "type": "biochemical", "summary_of_the_method": "as §1"}, "[3]": {"conditions": "1 nM GSK3α, 4 μM ATP, 30 minute preincubation, Table 16, read-out: GSK3-A TR-FRET BIOCHEMICAL (TR-FRET)"}, "[4]": {"conditions": "1 nM GSK3b, 2 μM ATP, 30 minute preincubation, Table 16, read-out: GSK3-B TR-FRET BIOCHEMICAL (TR-FRET)"}, "[5]": {"conditions": "1 nM GSK3α, 4 μM ATP, 30 minute preincubation, read-out: GSK3-A TR-FRET BIOCHEMICAL (TR-FRET), IC50"}, "[6]": {"conditions": "1 nM GSK3b, 2 μM ATP, 30 minute preincubation, read-out: GSK3-B TR-FRET BIOCHEMICAL (TR-FRET), IC50"}, "[7]": {"conditions": "read-out: GSK3-A (TR-FRET 1 mM ATP), GMean, IC50, 1 mM ATP, geometric mean"}, "[8]": {"conditions": "read-out: GSK3-B (TR-FRET 1 mM ATP), GMean, IC50, 1 mM ATP, geometric mean"}, "[9]": {"conditions": "1 nM GSK3α, 4 μM ATP, 30 minute preincubation, geometric mean, read-out: GSK3-A TR-FRET BIOCHEMICAL (TR-FRET), GMean, IC50"}, "[10]": {"conditions": "1 nM GSK3b, 2 μM ATP, 30 minute preincubation, geometric mean, read-out: GSK3-B TR-FRET BIOCHEMICAL (TR-FRET), GMean, IC50"}},
  "note": "Where two headings read alike, the source gives them in different places.",
  "data": [
    {"smiles": "Cc1ccc(C)c(S(=O)(=O)N2CCC3(CC2)C2=C(CC(C)(C)CC2=O)Nc2n[nH]cc23)c1", "note": "[Compound 947471]", "values": [
      {"measurement": "IC50", "setting": "[1]; [3]", "result": "≤ 0.1", "unit": "µM"},
      {"measurement": "IC50", "setting": "[2]; [4]", "result": "0.1 to 1", "unit": "µM"}
    ]},
    {"smiles": "CC1(C)CC(=O)C2=C(C1)Nc1n[nH]cc1C21CCN(S(=O)(=O)c2cn3c(n2)CCCC3)CC1", "note": "[Compound 947472]", "values": [
      {"measurement": "IC50", "setting": "[1]; [3]", "result": "≤ 0.1", "unit": "µM"},
      {"measurement": "IC50", "setting": "[2]; [4]", "result": "0.1 to 1", "unit": "µM"}
    ]},
    {"smiles": "CC(C)c1ccccc1S(=O)(=O)N1CCC2(CC1)C1=C(CC(C)(C)CC1=O)Nc1n[nH]cc12", "note": "[Compound 947473]", "values": [
      {"measurement": "IC50", "setting": "[1]; [3]", "result": "0.1 to 1", "unit": "µM"},
      {"measurement": "IC50", "setting": "[2]; [4]", "result": "0.1 to 1", "unit": "µM"}
    ]},
    {"smiles": "CC1(C)CC(=O)C2=C(C1)Nc1n[nH]cc1C21CCN(S(=O)(=O)c2cnn3c2CCCC3)CC1", "note": "[Compound 947474]", "values": [
      {"measurement": "IC50", "setting": "[1]; [3]", "result": "≤ 0.1", "unit": "µM"},
      {"measurement": "IC50", "setting": "[2]; [4]", "result": "≤ 0.1", "unit": "µM"}
    ]},
    {"smiles": "Cc1cc(S(=O)(=O)N2CCC3(CC2)C2=C(CC(C)(C)CC2=O)Nc2n[nH]cc23)ccc1Cl", "note": "[Compound 947475]", "values": [
      {"measurement": "IC50", "setting": "[1]; [3]", "result": "≤ 0.1", "unit": "µM"},
      {"measurement": "IC50", "setting": "[2]; [4]", "result": "≤ 0.1", "unit": "µM"}
    ]},
    {"smiles": "CC1(C)CC(=O)C2=C(C1)Nc1n[nH]cc1C21CCN(S(=O)(=O)c2ccc3ccccc3n2)CC1", "note": "[Compound 947476]", "values": [
      {"measurement": "IC50", "setting": "[1]; [5]", "result": "≤ 0.1", "unit": "µM"},
      {"measurement": "IC50", "setting": "[2]; [6]", "result": "≤ 0.1", "unit": "µM"}
    ]},
    {"smiles": "COCCn1cc(S(=O)(=O)N2CCC3(CC2)C2=C(CC(C)(C)CC2=O)Nc2n[nH]cc23)cn1", "note": "[Compound 947477]", "values": [
      {"measurement": "IC50", "setting": "[1]; [3]", "result": "≤ 0.1", "unit": "µM"},
      {"measurement": "IC50", "setting": "[2]; [4]", "result": "≤ 0.1", "unit": "µM"}
    ]},
    {"smiles": "COc1ccc(S(=O)(=O)N2CCC3(CC2)C2=C(CC(C)(C)CC2=O)Nc2n[nH]cc23)cc1F", "note": "[Compound 947478]", "values": [
      {"measurement": "IC50", "setting": "[1]; [3]", "result": "≤ 0.1", "unit": "µM"},
      {"measurement": "IC50", "setting": "[2]; [4]", "result": "≤ 0.1", "unit": "µM"}
    ]},
    {"smiles": "CC1(C)CC(=O)C2=C(C1)Nc1n[nH]cc1C21CCN(S(=O)(=O)c2ccccc2C#N)CC1", "note": "[Compound 947479]", "values": [
      {"measurement": "IC50", "setting": "[1]; [3]", "result": "≤ 0.1", "unit": "µM"},
      {"measurement": "IC50", "setting": "[2]; [4]", "result": "≤ 0.1", "unit": "µM"}
    ]},
    {"smiles": "CC1(C)CC(=O)C2=C(C1)Nc1n[nH]cc1C21CCN(S(=O)(=O)c2cnc3n2CCCC3)CC1", "note": "[Compound 947480]", "values": [
      {"measurement": "IC50", "setting": "[1]; [3]", "result": "≤ 0.1", "unit": "µM"},
      {"measurement": "IC50", "setting": "[2]; [4]", "result": "≤ 0.1", "unit": "µM"}
    ]},
    {"smiles": "Cc1cc(S(=O)(=O)N2CCC3(CC2)C2=C(CC(C)(C)CC2=O)Nc2n[nH]cc23)ccn1", "note": "[Compound 947481]", "values": [
      {"measurement": "IC50", "setting": "[1]; [3]", "result": "≤ 0.1", "unit": "µM"},
      {"measurement": "IC50", "setting": "[2]; [4]", "result": "≤ 0.1", "unit": "µM"}
    ]},
    {"smiles": "Cc1ccc(S(=O)(=O)N2CCC3(CC2)C2=C(CC(C)(C)CC2=O)Nc2n[nH]cc23)cn1", "note": "[Compound 947482]", "values": [
      {"measurement": "IC50", "setting": "[1]; [3]", "result": "≤ 0.1", "unit": "µM"},
      {"measurement": "IC50", "setting": "[2]; [4]", "result": "≤ 0.1", "unit": "µM"}
    ]},
    {"smiles": "CC1(C)CC(=O)C2=C(C1)Nc1n[nH]cc1C21CCN(S(=O)(=O)c2cnn3c2OCCC3)CC1", "note": "[Compound 947483]", "values": [
      {"measurement": "IC50", "setting": "[1]; [3]", "result": "≤ 0.1", "unit": "µM"},
      {"measurement": "IC50", "setting": "[2]; [4]", "result": "≤ 0.1", "unit": "µM"}
    ]},
    {"smiles": "CC1(C)CC(=O)C2=C(C1)Nc1n[nH]cc1C21CCN(S(=O)(=O)c2c(F)cc(F)cc2F)CC1", "note": "[Compound 947484]", "values": [
      {"measurement": "IC50", "setting": "[1]; [5]", "result": "≤ 0.1", "unit": "µM"},
      {"measurement": "IC50", "setting": "[2]; [6]", "result": "≤ 0.1", "unit": "µM"}
    ]},
    {"smiles": "CC1(C)CC(=O)C2=C(C1)Nc1n[nH]cc1C21COC2(CN(C(=O)C(F)F)C2)C1", "note": "(stereo not shown) [Compound 947485]", "values": [
      {"measurement": "IC50", "setting": "[1]; [5]", "result": "≤ 0.1", "unit": "µM"},
      {"measurement": "IC50", "setting": "[2]; [6]", "result": "≤ 0.1", "unit": "µM"}
    ]},
    {"smiles": "CC1(C)CC(=O)C2=C(C1)Nc1n[nH]cc1C21COC2(CN(C(=O)C3CCC(F)C3)C2)C1", "note": "(stereo not shown) [Compound 947486]", "values": [
      {"measurement": "IC50", "setting": "[1]; [5]", "result": "≤ 0.1", "unit": "µM"},
      {"measurement": "IC50", "setting": "[2]; [6]", "result": "≤ 0.1", "unit": "µM"}
    ]},
    {"smiles": "CC1(C)CC(=O)C2=C(C1)Nc1n[nH]cc1C21COC2(CN(C(=O)C3(F)CC3)C2)C1", "note": "(stereo not shown) [Compound 947487]", "values": [
      {"measurement": "IC50", "setting": "[1]; [5]", "result": "≤ 0.1", "unit": "µM"},
      {"measurement": "IC50", "setting": "[2]; [6]", "result": "≤ 0.1", "unit": "µM"}
    ]},
    {"smiles": "CCC1(c2cccc(-c3c(C)cnn3C)c2)C2=C(CC(C)(C)CC2=O)Nc2n[nH]cc21", "note": "(stereo not shown) [Compound 947491]", "values": [
      {"measurement": "IC50", "setting": "[1]; [3]", "result": "≤ 0.1", "unit": "µM"},
      {"measurement": "IC50", "setting": "[2]; [4]", "result": "≤ 0.1", "unit": "µM"}
    ]},
    {"smiles": "CCC1(c2cccc(-c3cnn4c3CCC4)c2)C2=C(CC(C)(C)CC2=O)Nc2n[nH]cc21", "note": "(stereo not shown) [Compound 947494]", "values": [
      {"measurement": "IC50", "setting": "[1]; [3]", "result": "≤ 0.1", "unit": "µM"},
      {"measurement": "IC50", "setting": "[2]; [4]", "result": "0.1 to 1", "unit": "µM"}
    ]},
    {"smiles": "CC[C@]1(c2cccc(Cc3ncccn3)c2)C2=C(CC(C)(C)CC2=O)Nc2n[nH]cc21", "note": "[Compound 947499]", "values": [
      {"measurement": "IC50", "setting": "[1]; [3]", "result": "1 to 5", "unit": "µM"},
      {"measurement": "IC50", "setting": "[1]; [7]", "result": "> 5", "unit": "µM"},
      {"measurement": "IC50", "setting": "[2]; [4]", "result": "> 5", "unit": "µM"},
      {"measurement": "IC50", "setting": "[2]; [8]", "result": "> 5", "unit": "µM"}
    ]},
    {"smiles": "CC[C@@]1(c2cccc(-c3c(F)cncc3OC)c2)C2=C(CC(C)(C)CC2=O)Nc2n[nH]cc21", "note": "[Compound 947511]", "values": [
      {"measurement": "IC50", "setting": "[1]; [3]", "result": "≤ 0.1", "unit": "µM"},
      {"measurement": "IC50", "setting": "[1]; [7]", "result": "≤ 0.1", "unit": "µM"},
      {"measurement": "IC50", "setting": "[2]; [4]", "result": "≤ 0.1", "unit": "µM"},
      {"measurement": "IC50", "setting": "[2]; [8]", "result": "≤ 0.1", "unit": "µM"}
    ]},
    {"smiles": "CCC1(c2cccc(Cc3ncccc3C(F)(F)F)c2)C2=C(CC(C)(C)CC2=O)Nc2n[nH]cc21", "note": "(stereo not shown) [Compound 947548]", "values": [
      {"measurement": "IC50", "setting": "[1]; [3]", "result": "0.1 to 1", "unit": "µM"},
      {"measurement": "IC50", "setting": "[2]; [4]", "result": "0.1 to 1", "unit": "µM"}
    ]},
    {"smiles": "CCC1(c2cccc(S(=O)(=O)C3CC3)c2)C2=C(CC(C)(C)NC2=O)Nc2n[nH]c(C)c21", "note": "(stereo not shown) [Compound 947562]", "values": [
      {"measurement": "IC50", "setting": "[1]; [9]", "result": "≤ 0.1", "unit": "µM"},
      {"measurement": "IC50", "setting": "[2]; [10]", "result": "≤ 0.1", "unit": "µM"}
    ]},
    {"smiles": "CCC1(c2cccc(-c3ccnc(C)c3F)c2)C2=C(CC(C)(C)NC2=O)Nc2n[nH]c(C)c21", "note": "(stereo not shown) [Compound 947563]", "values": [
      {"measurement": "IC50", "setting": "[1]; [9]", "result": "≤ 0.1", "unit": "µM"},
      {"measurement": "IC50", "setting": "[2]; [10]", "result": "0.1 to 1", "unit": "µM"}
    ]}
  ]
}
